Data from patent publication US20230200390A1, “SELECTIVE HERBICIDES BASED ON SUBSTITUTED ISOXAZOLIN CARBOXAMIDES AND MEFENPYR-DIETHYL” (BAYER AKTIENGESELLSCHAFT, priority 2020, published 2023).

Key:
Assay type in all cases: in vivo
[1] = system: spring barley, HORVS Montoya; assay: Seed treatment with safener; post-emergence herbicide, crop damage; conditions: for HER effect + SAF / Reduction [%] / Reduction [Difference]: mefenpyr-diethyl 0.5 g a.i./kg seed
Source text: (§1) For safener seed treatment trials, sufficient seed amounts of the respective crops (spring wheat (TRZAS); spring barley (HORVS)) were weighed into screw cap glass bottles with a minimum volume trice of the seeds.
(§2) As a first step, specified safeners formulated as wettable powder (WP) or wettable granules (WG) were weighed out for the required dosages (g a.i./kg seed), corresponding to the seed amounts. The safener amounts were mixed with a coloured slurry blind formulation type, prediluted with milk at 3.5% fat rate (25 mgs slurry formulation plus 2 ml milk per 10 grams of seed). A tube roller was used for coating. The solutions were gradually pipetted each on the rotating seeds followed by coating for min. 3 hours until all liquid had been soaked up by the seeds. Thereafter, the coated seeds were put flat on open trays for drying over night at room temperature.
(§3) Treated seeds were then placed into pots (7 cm diameter) on the surface of sandy loam, pressed down, flat covered with additional soil and finally covered with sandy soil, also pressed down, watered, and kept under good growth conditions in a greenhouse, until the plants had reached 2-leaf-stage (BBCH 12).
(§4) At that stage, post-emergence application of the specified herbicides was done on:
(§5) a) pot sets containing plants with safener-coated seeds as described above,
(§6) b) as a reference, pot sets of plants without seed treatment.
(§7) The herbicides were formulated as wettable powder (WP). Equivalent to the spray area, compound amounts were weighed out and diluted related to the water application rate (300 l/ha) to an aqueous suspension plus additive (1 l/ha MERO). Dosage related equivalents were conventionally sprayed on trays with the potted plants.
(§8) After application, the test plants were kept under good growth conditions in a greenhouse.
(§9) Assessment timings were 10 and 21 days after treatment (DAT) with the herbicide, by visual scoring of the crop damage in % (comparison of untreated with treated plants, either sprayed only with herbicide or with herbicide on plants with treated seeds).

[2] = system: spring wheat, TRZAS Triso; assay: as above; conditions: for HER effect + SAF [%] (crop damage) / Reduction [%] / Reduction [Difference]: mefenpyr-diethyl 0.5 g a.i./kg seed; for HER effect [%] (crop damage, herbicide without safener): no safener
Source text: as §1, §2, §3, §4, §5, §6, §7, §8, §9

[3] = system: spring barley, HORVS Montoya; assay: Tank-mix; post-emergence: crop damage by herbicide with/without safener mefenpyr-diethyl
Experimental: (§10) Seeds of crops (spring wheat, TRZAS; spring barley, HORVS; maize, ZEAMA) were placed in sandy loam soil in peat pots, covered with soil and cultivated in a greenhouse under good growth conditions. Two to three weeks after sowing, the test plants were treated at the 1 to 3-leaf stage. The herbicide/safener active compound combinations according to the invention, formulated as wettable powders or emulsion concentrates, and, in parallel tests, the correspondingly formulated individual active compounds were sprayed onto the green parts of the plants in various dosages using an amount of water of 300 l/ha (converted).
(§11) The pots were returned under good growing conditions in a glasshouse and a visual assessment of herbicidal effects was made at intervals from 1 to 3 weeks after herbicide application (DAT=days after treatment). Assessment was on a percentage basis in comparison with untreated control plants (0%=no injury, 100%=complete kill).

[4] = system: spring wheat, TRZAS Triso; assay: as above; conditions: 10 DAT
Experimental: as §10, §11

[5] = HER 8 g a.i./ha post-emergence, 21 DAT
[6] = HER 32 g a.i./ha post-emergence, 21 DAT
[7] = herbicide alone 8 g a.i./ha post-emergence, 21 DAT
[8] = HER 8 g a.i./ha + mefenpyr-diethyl 100 g a.i./ha, 21 DAT
[9] = HER 4 g a.i./ha + mefenpyr-diethyl 50 g a.i./ha, 10 DAT
[10] = HER 16 g a.i./ha + mefenpyr-diethyl 100 g a.i./ha, 10 DAT
[11] = HER 4 g a.i./ha + mefenpyr-diethyl 50 g a.i./ha
[12] = HER 16 g a.i./ha + mefenpyr-diethyl 100 g a.i./ha
[13] = HER 8 g a.i./ha + mefenpyr-diethyl 50 g a.i./ha, 10 DAT
[14] = HER 32 g a.i./ha + mefenpyr-diethyl 100 g a.i./ha, 10 DAT
[15] = HER 32 g a.i./ha post-emergence, 10 DAT

COC(=O)C1C=CC(NC(=O)C2(C)CC(c3cc(Cl)cc(C#N)c3)=NO2)C1 (mixture of isomers) [Example 1.23]
HER effect + SAF [1, 5]: 0%
Reduction [%] [1, 5]: 100%
Reduction [Difference] [1, 5]: 20
HER effect + SAF [1, 6]: 10%
Reduction [%] [1, 6]: 67%
Reduction [Difference] [1, 6]: 20
HER effect [1, 7]: 20%
HER effect ([1]; herbicide alone 32 g a.i./ha post-emergence, 21 DAT): 30%
HER effect + SAF [%] (crop damage) ([2]; 21 DAT, HER dose 8 g a.i./ha): 0%
Reduction [%] ([2]; 21 DAT, HER dose 8 g a.i./ha): 100%
Reduction [Difference] ([2]; 21 DAT, HER dose 8 g a.i./ha): 20
HER effect [%] (crop damage, herbicide without safener) ([2]; 21 DAT, HER dose 8 g a.i./ha): 20%

C=CC1(C(=O)NC2CC=C(C(=O)OC)C2)CC(c2cc(F)cc(F)c2)=NO1 (mixture of isomers) [Example 1.60]
HER effect + SAF [3, 8]: 20%
Reduction [%] [3, 8]: 75%
Reduction [Difference] [3, 8]: 60
HER effect ([3]; herbicide alone 8 g a.i./ha, 21 DAT): 80%
HER effect + SAF [1, 5]: 10%
Reduction [%] [1, 5]: 88%
Reduction [Difference] [1, 5]: 70
HER effect [1, 7]: 80%
HER effect + SAF [%] (crop damage) ([2]; 21 DAT, HER dose 8 g a.i./ha): 0%
Reduction [%] ([2]; 21 DAT, HER dose 8 g a.i./ha): 100%
Reduction [Difference] ([2]; 21 DAT, HER dose 8 g a.i./ha): 93
HER effect [%] (crop damage, herbicide without safener) ([2]; 21 DAT, HER dose 8 g a.i./ha): 93%
HER effect + SAF [%] (crop damage) ([2]; 21 DAT, HER dose 32 g a.i./ha): 10%
Reduction [%] ([2]; 21 DAT, HER dose 32 g a.i./ha): 89%
Reduction [Difference] ([2]; 21 DAT, HER dose 32 g a.i./ha): 85
HER effect [%] (crop damage, herbicide without safener) ([2]; 21 DAT, HER dose 32 g a.i./ha): 95%

CCOC(=O)C1CC(NC(=O)C2(C)CC(c3cccc(F)c3)=NO2)CO1 (mixture of isomers) [Example 1.67]
HER effect + SAF [3, 9]: 0%
Reduction [%] [3, 9]: 100%
Reduction [Difference] [3, 9]: 30
HER effect + SAF [3, 10]: 0%
Reduction [%] [3, 10]: 100%
Reduction [Difference] [3, 10]: 60
HER effect ([3]; herbicide alone 4 g a.i./ha, 10 DAT): 30%
HER effect ([3]; herbicide alone 16 g a.i./ha, 10 DAT): 60%
HER effect + SAF [4, 11]: 10%
Reduction [%] [4, 11]: 80%
Reduction [Difference] [4, 11]: 40
HER effect + SAF [4, 12]: 20%
Reduction [%] [4, 12]: 71%
Reduction [Difference] [4, 12]: 50
HER effect ([4]; herbicide alone 4 g a.i./ha): 50%
HER effect ([4]; herbicide alone 16 g a.i./ha): 70%
HER effect + SAF [%] (crop damage) ([2]; 10 DAT, HER dose 4 g a.i./ha): 10%
Reduction [%] ([2]; 10 DAT, HER dose 4 g a.i./ha): 80%
Reduction [Difference] ([2]; 10 DAT, HER dose 4 g a.i./ha): 40
HER effect [%] (crop damage, herbicide without safener) ([2]; 10 DAT, HER dose 4 g a.i./ha): 50%
HER effect + SAF [%] (crop damage) ([2]; 10 DAT, HER dose 16 g a.i./ha): 20%
Reduction [%] ([2]; 10 DAT, HER dose 16 g a.i./ha): 71%
Reduction [Difference] ([2]; 10 DAT, HER dose 16 g a.i./ha): 50
HER effect [%] (crop damage, herbicide without safener) ([2]; 10 DAT, HER dose 16 g a.i./ha): 70%

C=CCOC(=O)C1CC(NC(=O)C2(C=C)CC(c3cc(C)cc(F)c3)=NO2)CO1 (mixture of isomers) [Example 1.85]
HER effect + SAF [3, 13]: 0%
Reduction [%] [3, 13]: 100%
Reduction [Difference] [3, 13]: 20
HER effect + SAF [3, 14]: 20%
Reduction [%] [3, 14]: 75%
Reduction [Difference] [3, 14]: 60
HER effect ([3]; herbicide alone 8 g a.i./ha, 10 DAT): 20%
HER effect ([3]; herbicide alone 32 g a.i./ha, 10 DAT): 80%
HER effect + SAF [1, 15]: 30%
Reduction [%] [1, 15]: 63%
Reduction [Difference] [1, 15]: 50
HER effect ([1]; herbicide alone 32 g a.i./ha post-emergence, 10 DAT): 80%
